Target: hNaV1.7 (Homo sapiens (Human), UniProt Q15858)
Experiment: Competitive binding of tritiated compound to membranes from cells expressing hNav1.7 and the β1 subunit
Conditions: 100 pM [3H]compound, 18 h, room temperature; read-out: NaV1.7 395 Membrane Binding IC50
Description: Tritiated compound binding to membranes isolated from cells that heterologously express hNav1.7 and the β1 subunit
Preparation of membranes containing recombinantly expressed sodium channels: Frozen recombinant cell pellets were thawed on ice and diluted to 4 times the cell pellet weight with ice cold 50 mM Tris HCl, pH 7.4 buffer. The cell suspensions were homogenized on ice using a motorized glass dounce homogeniser. Homogenates were further diluted 8.4 times with ice cold 50 mM Tris HCl, pH 7.4 buffer and then centrifuged at 200×g at 4° C. for 15 min. The supernatants were collected and centrifuged at 10000×g at 4° C. for 50 min. The pellets were then re-suspended in 100 mM NaCl, 20 mM Tris HCl, pH 7.4 buffer containing 1% v/v protease inhibitors (Calbiochem) and re-homogenized on ice. The homogenized membranes were then processed through a syringe equipped with a 26 gauge needle. Protein concentrations were determined by Bradford Assay and the membranes were stored at −80° C.
Radioligand Binding Studies: Saturation experiments. A representative compound of formula (I) was tritiated. Three tritiums were incorporated in place of methyl hydrogens to generate [^3H]compound. Binding of this radioligand was performed in 5 mL borosilicate glass test tubes at room temperature. Binding was initiated by adding membranes to increasing concentrations of [^3H]compound in 100 mM NaCl, 20 mM Tris HCl, pH 7.4 buffer containing 0.01% w/v bovine serum albumin (BSA) for 18 h. Non-specific binding was determined in the presence of 1 μM unlabelled compound. After 18 h, the reactants were filtered through GF/C glass fiber filters presoaked in 0.5% w/v polyethylene imine. Filters were washed with 15 mL ice cold 100 mM NaCl, 20 mM Tris HCl, pH 7.4 buffer containing 0.25% BSA to separate bound from free ligand. [^3H]compound bound to filters was quantified by liquid scintillation counting.
Competitive binding experiments. Binding reactions were performed in 96-well polypropylene plates at room temperature for 18 h. In 360 μL, membranes were incubated with 100 pM [^3H]compound and increasing concentrations of Test Compound. Non-specific binding was defined in the presence of 1 μM unlabelled compound. Reactions were transferred and filtered through 96-well glass fiber/C filter plates presoaked with 0.5% polyethylene imine. The filtered reactions were washed 5 times with 200 μL ice cold buffer containing 0.25% BSA. Bound radioactivity was determined by liquid scintillation counting.
Data Analysis: For saturation experiments, non-specific binding was subtracted from total binding to provide specific binding and these values were recalculated in terms of pmol ligand bound per mg protein. Saturation curves were constructed and dissociation constants were calculated using the single site ligand binding model: Beq=(Bmax*X)/(X+Kd), where Beq is the amount of ligand bound at equilibrium, Bmax is the maximum receptor density, Kd is the dissociation constant for the ligand, and X is the free ligand concentration. For competition studies percent inhibition was determined and IC50 values were calculated using a 4 parameter logistic model (% inhibition=(A+((B−A)/(1+((x/C)^D)))) using XLfit, where A and B are the maximal and minimum inhibition respectively, C is the IC50 concentration and D is the (Hill) slope.

hNaV1.7, sequence (Q15858 whole entry, looked up): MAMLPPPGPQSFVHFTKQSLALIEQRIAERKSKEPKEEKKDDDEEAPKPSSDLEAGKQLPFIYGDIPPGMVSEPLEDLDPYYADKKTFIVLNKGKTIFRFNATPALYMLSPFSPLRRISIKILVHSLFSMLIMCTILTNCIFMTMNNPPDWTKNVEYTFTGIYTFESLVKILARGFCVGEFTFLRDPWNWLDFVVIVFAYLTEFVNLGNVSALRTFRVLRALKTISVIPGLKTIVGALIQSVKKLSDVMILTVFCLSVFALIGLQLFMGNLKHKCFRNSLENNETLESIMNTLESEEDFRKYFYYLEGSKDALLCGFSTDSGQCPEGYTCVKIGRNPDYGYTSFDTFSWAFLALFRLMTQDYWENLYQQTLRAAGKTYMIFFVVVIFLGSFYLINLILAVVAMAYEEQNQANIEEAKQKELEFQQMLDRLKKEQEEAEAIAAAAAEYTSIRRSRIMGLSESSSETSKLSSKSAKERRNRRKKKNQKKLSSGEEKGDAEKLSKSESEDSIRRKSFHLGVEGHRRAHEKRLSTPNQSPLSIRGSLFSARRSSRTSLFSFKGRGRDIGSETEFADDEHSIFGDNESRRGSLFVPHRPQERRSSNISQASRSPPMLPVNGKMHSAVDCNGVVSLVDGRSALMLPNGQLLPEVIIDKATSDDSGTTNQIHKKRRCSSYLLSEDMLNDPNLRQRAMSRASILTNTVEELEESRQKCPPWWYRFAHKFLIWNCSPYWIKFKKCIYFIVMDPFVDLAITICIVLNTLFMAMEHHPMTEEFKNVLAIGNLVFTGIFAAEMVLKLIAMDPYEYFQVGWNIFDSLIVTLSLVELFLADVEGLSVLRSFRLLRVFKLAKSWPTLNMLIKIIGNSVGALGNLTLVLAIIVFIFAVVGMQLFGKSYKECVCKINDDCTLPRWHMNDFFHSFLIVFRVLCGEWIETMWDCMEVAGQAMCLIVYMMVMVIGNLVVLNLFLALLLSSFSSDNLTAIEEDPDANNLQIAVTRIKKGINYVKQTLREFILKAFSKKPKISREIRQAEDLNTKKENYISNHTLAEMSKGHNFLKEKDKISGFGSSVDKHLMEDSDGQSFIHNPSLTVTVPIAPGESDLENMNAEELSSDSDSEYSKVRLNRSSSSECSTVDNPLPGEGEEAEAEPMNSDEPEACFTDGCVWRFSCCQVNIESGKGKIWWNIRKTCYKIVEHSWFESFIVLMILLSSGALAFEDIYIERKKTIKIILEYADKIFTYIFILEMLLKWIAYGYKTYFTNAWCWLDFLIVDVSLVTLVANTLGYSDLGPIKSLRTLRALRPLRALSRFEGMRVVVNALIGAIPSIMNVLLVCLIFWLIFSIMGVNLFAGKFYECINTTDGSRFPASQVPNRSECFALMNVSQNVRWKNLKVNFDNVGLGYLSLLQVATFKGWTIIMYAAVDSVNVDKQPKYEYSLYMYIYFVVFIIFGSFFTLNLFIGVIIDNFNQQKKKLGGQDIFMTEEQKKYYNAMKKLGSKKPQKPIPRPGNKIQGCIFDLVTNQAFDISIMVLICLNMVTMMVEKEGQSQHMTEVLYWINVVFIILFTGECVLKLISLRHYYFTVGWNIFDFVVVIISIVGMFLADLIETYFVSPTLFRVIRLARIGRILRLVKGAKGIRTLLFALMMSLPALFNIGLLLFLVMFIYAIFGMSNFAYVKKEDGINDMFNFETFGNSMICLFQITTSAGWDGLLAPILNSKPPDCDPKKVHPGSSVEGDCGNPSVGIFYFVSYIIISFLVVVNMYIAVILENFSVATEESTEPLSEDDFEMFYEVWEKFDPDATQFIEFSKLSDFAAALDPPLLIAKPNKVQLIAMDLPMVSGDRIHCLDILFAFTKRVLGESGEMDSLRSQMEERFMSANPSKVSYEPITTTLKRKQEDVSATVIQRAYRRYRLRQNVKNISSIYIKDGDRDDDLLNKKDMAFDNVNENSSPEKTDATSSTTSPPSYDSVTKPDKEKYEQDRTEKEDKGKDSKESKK
hNaV1.7, sequence (Q07699 whole entry partner, looked up): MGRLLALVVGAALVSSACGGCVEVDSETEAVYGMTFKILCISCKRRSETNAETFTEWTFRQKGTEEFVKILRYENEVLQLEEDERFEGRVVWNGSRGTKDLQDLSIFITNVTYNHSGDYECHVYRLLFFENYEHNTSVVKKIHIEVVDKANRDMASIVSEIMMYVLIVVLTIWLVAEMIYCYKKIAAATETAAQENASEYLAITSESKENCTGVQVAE

| SMILES | IC50 |
| --- | --- |
| O=C(NS(=O)(=O)N1CCC1)c1cc(Cl)c(COc2ccc(Cl)c(Cl)c2)cc1F [Preparation 99] | 51 nM |
| O=C(NS(=O)(=O)NC1CCC1)c1cc(Cl)c(Oc2ccc(OC(F)(F)F)c(Cl)c2)cc1F [Preparation 45, 5-chloro-4-(3-chloro-4-(trifluoromethoxy)phenoxy)-N-(N-cyclobutylsulfamoyl)-2-fluorobenzamide] | 108 nM |
| NS(=O)(=O)NC(=O)c1cc(Cl)c(Oc2ccc3ccccc3c2)cc1F [Preparation 48, 5-chloro-2-fluoro-4-(naphthalen-2-yloxy)-N-sulfamoyl-benzamide] | 138 nM |
| O=C(NS(=O)(=O)N1CCC1)c1cc(Cl)c(COc2cnc(OCC(F)(F)C(F)F)c(Cl)c2)cc1F [Preparation 101] | 68 nM |
| O=C(NS(=O)(=O)N1CCC1)c1cc(Cl)c(Oc2cnc(OCC(F)(F)F)c(Cl)c2)cc1F [Preparation 93] | 16 nM |
| CCCCN(CCCC)S(=O)(=O)NC(=O)c1cc(Cl)c(Oc2cnc(OCC(C)C)c(Cl)c2)cc1F [Preparation 13, 5-chloro-4-((5-chloro-6-isobutoxypyridin-3-yl)oxy)-N-(N,N-dibutylsulfamoyl)-2-fluorobenzamide] | 3640 nM |
| Cc1nc2ccc(Oc3cc(F)c(C(=O)NS(=O)(=O)N(C)C)cc3Cl)cc2s1 [Preparation 64, 5-chloro-N-(N,N-dimethylsulfamoyl)-2-fluoro-4-((2-methyl-benzo[d]thiazol-6-yl)oxy)benzamide] | 1900 nM |
| CNS(=O)(=O)NC(=O)c1cc(Cl)c(Oc2cnc(OCC(F)(F)C(F)F)c(Cl)c2)cc1F [Preparation 33, 5-chloro-4-((5-chloro-6-(2,2,3,3-tetrafluoro-propoxy)pyridin-3-yl)oxy)-2-fluoro-N-(N-methylsulfamoyl) benzamide] | 22.8 nM |
| CC(C)COc1ncc(Oc2cc(F)c(C(=O)NS(=O)(=O)NC(=O)OC(C)(C)C)cc2Cl)cc1Cl [Preparation 29, tert-butyl N-(5-chloro-4-((5-chloro-6-isobutoxy-pyridin-3-yl)oxy)-2-fluorobenzoyl) sulfamoylcarbamate] | 905 nM |
| CC(C)COc1ncc(Oc2cc(F)c(C(=O)NS(=O)(=O)N(C)C)cc2C#N)cc1Cl [Preparation 65, 4-((5-chloro-6-iso-butoxypyridin-3-yl)oxy)-5-cyano-N-(N,N-dimethylsulfamoyl)-2-fluorobenzamide] | 93 nM |
| CN(C)S(=O)(=O)NC(=O)c1cc(Cl)c(OCCc2ccccc2)cc1F [Preparation 58, 5-chloro-N-(N,N-dimethylsulfamoyl)-2-fluoro-4-phenethoxy-benzamide] | 1300 nM |
| CN(C)S(=O)(=O)NC(=O)c1cc(Cl)c(Oc2ccc3cc[nH]c3c2)cc1F [Preparation 56, 4-((1H-indol-6-yl)oxy)-5-chloro-N-(N,N-dimethyl-sulfamoyl)-2-fluoro-benzamide] | 990 nM |
| CN(C)S(=O)(=O)NC(=O)c1cc(Cl)c(Oc2ccc(S(C)(=O)=O)cc2)cc1F [Preparation 61, 5-chloro-N-(N,N-dimethylsulfamoyl)-2-fluoro-4-(4-(methyl-sulfonyl)phenoxy) benzamide] | 20000 nM |
| CN(C)S(=O)(=O)NC(=O)c1cc(Cl)c(Oc2ccc(C#N)cc2)cc1F [Preparation 43, 5-chloro-4-(4-cyano-phenoxy)-N-(N,N-dimethylsulfamoyl)-2-fluorobenzamide] | 10000 nM |
| CNS(=O)(=O)NC(=O)c1ccc(Oc2cnc(OC(C)C)c(Cl)c2)c(-c2cccnc2OC)c1 [Preparation 83] | 43 nM |
| CN(C)S(=O)(=O)NC(=O)c1cc(Cl)c(Oc2ccc(F)c(F)c2)cc1F [Preparation 49, 5-chloro-4-(3,4-difluorophenoxy)-N-(N,N-dimethyl-sulfamoyl)-2-fluorobenzamide] | 3470 nM |
| NS(=O)(=O)NC(=O)c1cc(Cl)c(Oc2cnc(Cl)c(Cl)c2)cc1F [Preparation 34, 5-chloro-4-((5,6-dichloropyridin-3-yl)oxy)-2-fluoro-N-sulfamoylbenzamide] | 4680 nM |
| COc1ncccc1-c1cc(C(=O)NS(=O)(=O)N2CCC2)ccc1Oc1ccc(OC(F)(F)F)c(Cl)c1 [Preparation 97] | 52 nM |
| CC(C)COc1ncc(Oc2cc(F)c(C(=O)NS(=O)(=O)NCc3ccccc3)cc2Cl)cc1Cl [Preparation 18, N-(N-benzyl-sulfamoyl)-5-chloro-4-((5-chloro-6-isobutoxy-pyridin-3-yl)oxy)-2-fluorobenzamide] | 4180 nM |

Next, values leading:

| IC50 | SMILES |
| --- | --- |
| 23000 nM | NS(=O)(=O)NC(=O)c1cc(Cl)c(Oc2cccc3ccccc23)cc1F [Preparation 53, 5-chloro-2-fluoro-4-(naphthalen-1-yloxy)-N-sulfamoylbenzamide] |
| 140 nM | CNS(=O)(=O)NC(=O)c1cc(Cl)c(COc2cnc(OC(C)C)c(Cl)c2)cc1F [Preparation 77] |
| 2 nM | O=C(NS(=O)(=O)N1CCC1)c1cc(C2CC2)c(COc2cc(Cl)cc(OC(F)(F)F)c2)cc1F [Preparation 95] |
| 2400 nM | COc1ccc(CCOc2cc(F)c(C(=O)NS(=O)(=O)N(C)C)cc2Cl)cc1 [Preparation 57, 5-chloro-N-(N,N-dimethylsulfamoyl)-2-fluoro-4-(4-methoxy-phenethoxy)benzamide] |
| 35 nM | CNS(=O)(=O)NC(=O)c1cc(Cl)c(COc2ccc(Cl)c(C(F)(F)F)c2)cc1F [Preparation 78] |
| 11000 nM | Cc1cc(Oc2cc(F)c(C(=O)NS(=O)(=O)N(C)C)cc2Cl)cc(C)c1C#N [Preparation 74, 5-chloro-4-(4-cyano-3,5-dimethylphenoxy)-N-(N,N-dimethyl-sulfamoyl)-2-fluoro-benzamide] |
| 5200 nM | Cc1cc2cc(Oc3cc(F)c(C(=O)NS(=O)(=O)N(C)C)cc3Cl)ccc2[nH]1 [Preparation 59, 5-chloro-N-(N,N-dimethylsulfamoyl)-2-fluoro-4-((2-methyl-1H-indol-5-yl)oxy) benzamide] |
| 20000 nM | CN(C)S(=O)(=O)NC(=O)c1cc(Cl)c(Oc2cccc3cnccc23)cc1F [Preparation 60, 5-chloro-N-(N,N-dimethylsulfamoyl)-2-fluoro-4-(isoquinolin-5-yloxy)benzamide] |
| 17 nM | O=C(NS(=O)(=O)N1CCC1)c1cc(Cl)c(COc2ccc(OC(F)(F)F)c(Cl)c2)cc1F [Preparation 79] |
| 860 nM | CN(C)S(=O)(=O)NC(=O)c1cc(F)c(Oc2ccc(OC(F)(F)F)c(Cl)c2)cc1F [Preparation 31, 4-(3-chloro-4-(tri-fluoromethoxy)phenoxy)-N-(N,N-dimethylsulfamoyl)-2,5-difluoro-benzamide] |
| 26 nM | O=C(NS(=O)(=O)N1CCCC1)c1cc(Cl)c(Oc2cnc(OCC(F)(F)C(F)F)c(Cl)c2)cc1F [Preparation 66, 5-chloro-4-((5-chloro-6-(2,2,3,3-tetrafluoro-propoxy)pyridin-3-yl)oxy)-2-fluoro-N-(pyrrolidin-1-ylsulfonyl)benzamide] |
| 20200 nM | O=C(NS(=O)(=O)N1CCC1)c1ccc(Oc2ccc(OC(F)(F)F)c(Cl)c2)c(C2(O)COC2)c1 [Preparation 81] |
| 26 nM | O=C(NS(=O)(=O)N1CCC1)c1cc(Cl)c(COc2ccc(Cl)c(C(F)(F)F)c2)cc1F [Preparation 85] |
| 14000 nM | CN(C)S(=O)(=O)NC(=O)c1cc(Cl)c(Oc2ccc3cnn(C)c3c2)cc1F [Preparation 62, 5-chloro-N-(N,N-dimethylsulfamoyl)-2-fluoro-4-((1-methyl-1H-indazol-6-yl)oxy) benzamide] |
| 9600 nM | CN(C)S(=O)(=O)NC(=O)c1cc(Cl)c(Oc2ccc3ncccc3c2)cc1F [Preparation 72, 5-chloro-N-(N,N-dimethylsulfamoyl)-2-fluoro-4-(quinolin-6-yloxy)benzamide] |
| 340 nM | CN(C)S(=O)(=O)NC(=O)c1cc(Cl)c(Oc2cc(OC(F)(F)F)ccc2F)cc1F [Preparation 70, 5-chloro-N-(N,N-dimethylsulfamoyl)-2-fluoro-4-(2-fluoro-5-(trifluoromethoxy)phenoxy)benzamide] |
| 43 nM | CNS(=O)(=O)NC(=O)c1cc(Cl)c(COc2ccc(OC(F)(F)F)c(Cl)c2)cc1F [Preparation 100] |
